What follows are compounds tested against CfEcR(CDEF)-GST and CfUSP-GST fusion proteins (assay: Competitive 3H-ponasterone A binding assay, bacterial GST fusion proteins). Details: bacterial CfEcR(CDEF)-GST/CfUSP-GST extracts, 3H-ponasterone A displacement.
Set-up: species or system Choristoneura fumiferana
Excerpt: Bacterial glutathion-S-transferase (GST) fusion proteins of the spruce budworm (Choristoneura fumiferana) EcR (CfEcR), containing CDEF domains only, and ultraspiracle protein (CfUSP) were also used in radioligand displacement assays. cDNA encoding the CDEF domains of CfEcR were constructed following PCR amplification using primers that contain BamH1 and EcoRI sites (Perera S C, M Sundaram, Krell P J, Retnakaran A, Dhadialla T S, S R Palli, 1999 Arch. Insect Biochem. Physiol. 41 In Press). The PCR produce was digested with BamHI and EcoRI and cloned into pGEX-3X vector obtained from Pharmacia Biotech. CfUSP coding region was amplified using primers that contain BamH1 and EcoRI sites and cloned into to pGEX-2T vector obtained from Pharmacia Biotech. E. coli transformed with each of the two vectors were grown and induced to produce the fusion proteins as detailed in the Pharmacia Biotech GST-technical bulletin.
(§1) The concentrations of competitors that inhibited 50% of tritiated ponasterone A binding (IC50) was determined by incubating Kc or Plodia nuclear extracts or extracts of bacteria producing CfEcR(CDEF)-GST and CfUSP-GST fusions proteins with ^3H-ponasterone A (66,000 dpm per reaction) in the presence of a range of concentrations (0.1 nM to 10 μM) of test compounds. In the case of binding reactions using bacterial fusion proteins, 20 or one μl extract of bacteria producing CfEcR(CDEF)-GST or CfUSP-GST fusion proteins, respectively, were included per binding reaction. The assay conditions and determination of total and non-specific binding was as described above. The volume of competitor in solvent, like that for 20E or solvent alone, was kept at 1% of total reaction volume by using a 100 fold concentrated stock solution (i.e. a 100 fold dilution of stock solutions). The remainder of the assay was as described above. Each reaction was carried out in duplicate per concentration per test compound. […]

Question: `Cc1cc(C)cc(C(=O)N(NC(=O)c2cccc(O)c2C)C(C)(C)C)c1` [Ligand 14] was tested. Which “Bacterial CfECR log(1/IC50)” value did it give?
Answer: Its value is 8.61.

Question: `Cc1cc(CO)cc(C(=O)N(NC(=O)c2cccc(O)c2C)C(C)(C)C)c1` [Ligand 15] was tested. Which “Bacterial CfECR log(1/IC50)” value did it give?
Answer: Its value is 8.49.

The compounds below were run against T1, ecdysteroid receptor complex in Plodia interpunctella (IAL-PID2) nuclear extract (Plodia interpunctella, UniProt Q6RVD3) (assay: Competitive 3H-ponasterone A binding assay, Plodia nuclear ecdysone receptor extract). Details: 3H-ponasterone A displacement.
T1 sequence (Q6RVD3 1-541): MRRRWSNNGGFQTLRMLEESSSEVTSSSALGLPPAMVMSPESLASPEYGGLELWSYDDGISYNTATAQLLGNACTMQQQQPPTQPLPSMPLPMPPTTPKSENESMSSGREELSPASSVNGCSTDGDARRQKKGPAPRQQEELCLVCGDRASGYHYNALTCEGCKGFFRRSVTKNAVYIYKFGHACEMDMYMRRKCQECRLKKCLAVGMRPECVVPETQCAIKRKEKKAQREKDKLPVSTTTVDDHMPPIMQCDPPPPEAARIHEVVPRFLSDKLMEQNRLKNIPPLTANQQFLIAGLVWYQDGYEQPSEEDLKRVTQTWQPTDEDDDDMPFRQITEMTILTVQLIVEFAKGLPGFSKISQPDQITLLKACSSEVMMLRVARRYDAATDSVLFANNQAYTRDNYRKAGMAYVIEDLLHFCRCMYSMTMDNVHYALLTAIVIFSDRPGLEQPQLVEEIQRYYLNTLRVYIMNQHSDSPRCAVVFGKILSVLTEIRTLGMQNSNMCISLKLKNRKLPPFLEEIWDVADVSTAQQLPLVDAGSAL
T1 sequence (Q6IVK1 1-415 partner): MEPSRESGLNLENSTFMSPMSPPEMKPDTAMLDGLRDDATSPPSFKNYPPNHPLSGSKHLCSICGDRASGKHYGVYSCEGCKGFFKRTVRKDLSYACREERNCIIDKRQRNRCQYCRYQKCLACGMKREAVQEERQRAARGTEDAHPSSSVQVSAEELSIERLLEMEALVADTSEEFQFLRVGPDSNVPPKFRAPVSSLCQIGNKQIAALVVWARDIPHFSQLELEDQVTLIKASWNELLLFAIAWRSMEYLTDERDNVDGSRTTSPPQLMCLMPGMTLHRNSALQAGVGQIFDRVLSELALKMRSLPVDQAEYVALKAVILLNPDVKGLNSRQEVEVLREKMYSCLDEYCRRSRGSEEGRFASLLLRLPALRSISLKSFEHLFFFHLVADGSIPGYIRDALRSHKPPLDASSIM
Procedure: The cell line IAL-PID2, derived from imaginal wing discs of the lepidopteran Plodia interpunctella was obtained from H. Oberlander and maintained as described (Lynn, E. E. and Oberlander, H., (1983), J. Insect Physiology, 29, 591-96). A 300 ml stationary phase culture of P. interpunctella cells was centrifuged at 700×g for 10 mm at room temperature to pellet the cells. The supernatant was aspirated and the cellular pellet resuspended in 35 ml TMT (TM buffer with 0.1% Triton X-100). The suspension was homogenized with twenty up and down strokes of a Dounce homogenizer on ice. Homogenate was incubated on ice for 10 minutes and then centrifuged for 15 min at 900×g. The pellet was resuspenced in 15 ml TM buffer and centrifuged at 2,300×g. This pellet was extracted in TMK buffer (TM buffer with 800 mM KCl) by using a glass rod to crush the pellet until a gelatinous slurry was formed and incubated on ice for 15 minutes. The extract was centrifuged at 100,000×g in a swinging bucket rotor for 60 minutes. The supernatant, which constituted the nuclear extract, was desalted on a 10 DG desalting column (Bio-Rad, 732-2010) equilibrated with T-buffer. The total protein concentration in the nuclear extract was adjusted to 5 mg per ml with T-buffer containing 1 mM DTT.
^3H ponasterone A, a potent phytoecdysteroid, (66,000 dpm; specific activity 170 Ci/mmole; NEN Life Science Products, Boston, Mass.) was mixed with 100 μl Kc cytosolic or Plodia nuclear ecdysone receptor extracts in […] glass test tubes in the absence or presence of 10 μM unlabelled 20-hydroxyecdysone (20E) to obtain an estimate of total or non-specific respectively, binding of tritiated ponasterone A. The tubes were vortexed and incubated overnight at 4° C. for Kc cytosolic extracts or 1.5 hours for Plodia nuclear extracts for binding reactions to reach equilibrium. At the end of equilibrium binding times, the bound tritiated ponasterone A was separated from the unbound by addition of ice-cold 600 μl or 300 μl dextran-coated charcoal solution (500 mg of Sigma HCL-washed activated charcoal, 50 mg Pharmacia Dextran T70, 50 ml T-buffer) to Kc or Plodia extracts, respectively. The tubes were vortexed briefly and centrifuged at 7,000×g to pellet the charcoal. The supernatant, 600 μl or 300 μl for Kc or Plodia extract reactions, respectively, containing tritiated ponasterone A bound to proteins, was aspirated into liquid scintillation vials containing 5 ml scintillation cocktail (ReadySafe®, Beckmann) each The mixture was vortexed and the amount of total or non-specifically bound radioactivity measured in a Beckmann LS500 liquid scinitllation counter with a 60% counting efficiency for tritium.
as §1, with “compound. Specific binding of ^3H-ponasterone A was determined by subtracting non-specific binding (that obtained in the presence of 10 μM 20E) from total (no competitor) or competed radioactivity bound.” for “compound.”

Question: Which “Plodia log(1/IC50)” value does the source give for `CCOc1cccc(C(=O)NN(C(=O)c2cc(C)cc(C)c2)C(C)(C)C)c1C` [Ligand 6] here?
Answer: Its value is 8.82.

Question: How did the “Plodia log(1/IC50)” value turn out when `CCc1c(OC)cccc1C(=O)NN(C(=O)c1cc(C)cc(Cl)c1)C(C)(C)C` [Ligand 10] was run?
Answer: Its value is 8.80.

Question: Which “Plodia log(1/IC50)” value does the source give for `COc1cccc(C(=O)NN(C(=O)c2cc(C)cc(C)c2)C(C)(C)C)c1C(C)C` [Ligand 11] here?
Answer: Its value is 8.93.

Question: `CCc1c(C(=O)NN(C(=O)c2cc(C)cc(C)c2)C(C)(C)C)ccc2c1OCCO2` [Ligand 7] was tested. Which “Plodia log(1/IC50)” value did it give?
Answer: Its value is 8.78.

Question: Which “Plodia log(1/IC50)” value does the source give for `COc1cccc(C(=O)NN(C(=O)c2cc(Cl)cc(Cl)c2)C(C)(C)C)c1C` [Ligand 9] here?
Answer: Its value is 9.00.
